Measurements published in paper PMC8609999, “A Phase I trial of talazoparib in patients with advanced hematologic malignancies” (International Journal of Hematologic Oncology, 2021).
“And” between values parts separate entries of the source, which are not always exact repeats. Equal entries are not always repeated. Where two headings read alike, the source gives them in different places. Marks after values point to notes of the source that are not given here.

Assays:
[1] = system: advanced hematologic malignancies (AML, MDS, CLL, MCL); assay: Anti-leukemic activity (best overall response); format: in vivo, human
Procedure: Objective response, duration of objective response, and time to progression or treatment failure were recorded. Response was measured by the following response criteria: the European leukemiaNet for subjects with AML [30], the International Working Group for Prognosis in MDS for subjects with MDS [31, 32], the International Workshop on Chronic Lymphocytic leukemia (iwCLL) for subjects with CLL, and the Revised Response Criteria for MCL [34].

[2] = system: PARP; parameters: method as in PMID 28302823, PMID 24356813, PMID 32241924; settings: in vitro; cited from earlier work
[3] = system: patients with germline BRCA1/2 mutations and solid tumors; settings: NCT01286987; cited from earlier work
[4] = Plasma pharmacokinetics after multiple daily talazoparib dosing; format: in vivo, human
Procedure: (§1) Plasma and urine samples were assayed for talazoparib concentrations by Covance Laboratories Inc., using validated high performance liquid chromatography with tandem mass spectrometry detection methods. The lower limits of quantitation for […] and urine were 5.0 pg/ml and 25.0 pg/ml, respectively. Evaluated PK parameters included maximum concentration (Cmax), minimum concentration (Cmin), time to maximum plasma concentration (Tmax), area under the curve from time 0 to last measurable concentration (AUC0–t), area under the curve from time 0 to 24 h post-dose (AUC0–24), amount of drug excreted into the urine from time 0 to 24 h (Ae0–24), fraction of administered drug excreted in the urine from time 0 to 24 h (Fe0–24), and average renal clearance from time 0 to 24 h (ARC0–24); ARC0–24 was calculated as (Ae0–24/AUC0–24). PK parameters were calculated using Phoenix™ WinNonlin® 6.1.
(§2) Summary statistics for plasma and urine talazoparib concentrations and PK parameters were calculated by grouping subjects in cohorts 1 and 2 together to provide a larger sample size at each dose level.

[5] = Urine pharmacokinetics after multiple daily talazoparib dosing; format: in vivo, human
Procedure: as §1, §2

[6] = system: germline BRCA1/2-mutated HER2- advanced breast cancer; parameters: method as in PMID 30110579; settings: 1 mg once daily; cited from earlier work
[7] = system: patients with advanced hematologic malignancies (cohort 1: AML/MDS; cohort 2: CLL/MCL); assay: Dose-limiting toxicity / MTD, Phase I 3 + 3 dose-escalation of once-daily oral talazoparib (NCT01399840); format: in vivo; settings: for Maximum tolerated dose (MTD): oral once daily, 21-day cycles
Procedure: This study was an open-label, two-cohort, Phase I, dose-escalation study of once-daily talazoparib monotherapy in patients with advanced hematologic malignancies (ClinicalTrials.gov Identifier: NCT01399840) conducted at seven sites in the US and the UK between July 2011 and November 2013. Enrollment and dose escalation were conducted independently in each cohort of the study. Talazoparib was administered orally, once a day for repeated 21-day cycles under fasting conditions. Each cohort consisted of two stages: dose escalation (stage 1) and dose expansion (stage 2). Dose escalation followed a standard 3 + 3 dose-escalation design, where the first patient in each group was observed from cycle 1 day 1 through cycle 1 day 8 before two to five additional patients were treated in that dose level. […] Planned talazoparib dose levels included 0.1, 0.2, 0.3, 0.45, 0.9, 1.35, and 2.0 mg/day.
The primary objective of the study was to establish the MTD of daily oral talazoparib in molecularly unselected patients with AML or MDS (cohort 1) and in patients with CLL or MCL (cohort 2). The MTD was defined as the highest dose level at which no more than one of six patients experienced a DLT. A DLT was defined as any of the following treatment-related toxicities occurring during cycle 1: in cohort 1, hematologic adverse events (AEs) included bone marrow hypoplasia (≤10% cellularity) lasting ≥28 days. Non-hematologic toxicities included any Grade ≥3 AE except for the following: (1) a non-hematologic Grade 3 laboratory AE that is asymptomatic and rapidly reversible (returned to baseline or to Grade ≤1 within 3 days) unless identified as clinically relevant by the investigator; (2) Grade 3 nausea, vomiting, and/or diarrhea responsive to medications within 24 h; (3) Grade 3 tumor lysis syndrome; (4) Grade 3 stomatitis that resolves within 7 days; or (5) Grade 3 fatigue unless ≥2 grade increase from baseline lasting >3 days. Missing ≥4 doses of talazoparib during cycle 1 for treatment-related non-hematologic toxicity was also defined as a DLT. In cohort 2, hematologic AEs included Grade 4 thrombocytopenia persisting for >7 days and/or resulting in Grade ≥2 hemorrhage, or Grade 4 neutropenia lasting >7 days and/or associated with fever (hematologic AEs for patients with bone marrow effacement [i.e., platelet count ≤50 × 10^9/L and neutrophil count <1 × 10^9/L] included >50% decrease in platelet count persisting for >7 days or resulting in Grade ≥2 hemorrhage, or >50% decrease in neutrophil count and/or associated with fever or systemic infection). For non-hematologic AEs, the same criteria used for cohort 1 were used to define DLT.
Patients experiencing a DLT during cycle 1 could resume talazoparib treatment at the same or reduced dose after recovery to baseline or Grade ≤1 within 21 days of treatment interruption. Patients not experiencing a DLT during cycle 1 could receive additional treatment until disease progression, treatment failure, or relapse. Patients with persisting non-hematologic Grade 1/2 toxicity were dose reduced ∼25%. Dosing was stopped for patients with a Grade 3/4 non-hematologic toxicity and resumed with a 25%–50% dose reduction if toxicity resolved to Grade 0/1 after >7 days, or returned to baseline. Patients with non-hematologic Grade 3 toxicity that resolved to Grade 0/1 in <7 days could resume with ∼25% reduction.
For determination of the MTD, only the treated evaluable patients were included. No formal sample size calculations based on statistical power were performed. Descriptive statistics were used to characterize all outcomes.

[8] = 1.35 mg/day, cycle 2 day 1, plasma, n = 3, median (range)
[9] = 1.35 mg/day, multiple daily dosing, urine, n = 2, geometric mean (geometric CV%)

Cn1ncnc1[C@H]1c2n[nH]c(=O)c3cc(F)cc(c23)N[C@@H]1c1ccc(F)cc1 [talazoparib]
Stable disease (best overall response) ([1]; Cohort 1, AML (n = 21)): 9 (42.9) n (%)
Stable disease ≥16 weeks ([1]; Cohort 1, AML (n = 21)): 2 (9.5)^‡ n (%)
Stable disease (best overall response) ([1]; Cohort 1, All (n = 25)): 13 (52.0) n (%)
Stable disease ≥16 weeks ([1]; Cohort 1, All (n = 25)): 5 (20.0) n (%)
Stable disease (best overall response) ([1]; Cohort 1, MDS (n = 4)): 4 (100) n (%)
Stable disease ≥16 weeks ([1]; Cohort 1, MDS (n = 4)): 3 (75.0)^§ n (%)
Stable disease (best overall response) ([1]; Cohort 2, All (n = 8)): 5 (62.5) n (%)
Stable disease ≥16 weeks ([1]; Cohort 2, All (n = 8)): 1 (12.5) n (%)
Stable disease (best overall response) ([1]; Cohort 2, CLL (n = 4)): 3 (75.0) n (%)
Stable disease ≥16 weeks ([1]; Cohort 2, CLL (n = 4)): 0 n (%)
Stable disease (best overall response) ([1]; Cohort 2, MCL (n = 4)): 2 (50.0) n (%)
Stable disease ≥16 weeks ([1]; Cohort 2, MCL (n = 4)): 1 (25.0) n (%)
Patients with stable disease ([1]; both cohorts, N = 33): 54.5%
Stable disease of at least 16 weeks' duration ([1]; both cohorts, N = 33): six
Transfusion independence ([1]; one with MDS and one with AML): two
PARP-trapping activity compared with other PARP inhibitors [2]: higher PARP-trapping activity
Maximum tolerated dose (MTD) [3]: 1 mg once daily
AR (accumulation ratio) [4, 8]: 3.80 (3.28, 4.22)
Tmax [4, 8]: 1.03 (1.00, 4.00) hr
AUC(0-t) ([4]; human, in vivo, 1.35 mg/day, cycle 2 day 1, plasma, n = 3, geometric mean (geometric CV%), read-out: AUC0–24): 226 ng·h/mL
AUC(0-t) ([4]; human, in vivo, 1.35 mg/day, cycle 2 day 1, plasma, n = 3, geometric mean (geometric CV%), read-out: AUC0–t): 225 ng·h/mL
Cmax ([4]; human, in vivo, 1.35 mg/day, cycle 2 day 1, plasma, n = 3, geometric mean (geometric CV%)): 19.7 ng/mL
Total exposure vs dose ([4]; in vivo): dose-proportional increases in total exposure
Ae0–24 [5, 9]: 0.531 (29.8) mg
Fe0–24 (fraction of administered drug excreted in urine) [5, 9]: 0.393 (29.8)
Major clearance pathway ([5]; human, in vivo): urinary elimination is the major clearance pathway
Progression-free survival compared with physician's choice of chemotherapy [6]: significantly longer progression-free survival
Maximum tolerated dose (MTD) ([7]; Cohort 1 (AML/MDS)): < 2.0 mg/day and 1.35 mg/day
DLT AE: Neutropenic sepsis ([7]; Cohort 1, 0.10 mg/day (n = 3)): 0 (0.0) n (%)
DLT AE: Neutropenic sepsis ([7]; Cohort 1, 0.20 mg/day (n = 3)): 0 (0.0) n (%)
DLT AE: Neutropenic sepsis ([7]; Cohort 1, 0.30 mg/day (n = 5)): 0 (0.0) n (%)
DLT AE: Neutropenic sepsis ([7]; Cohort 1, 0.45 mg/day (n = 3)): 0 (0.0) n (%)
DLT AE: Neutropenic sepsis ([7]; Cohort 1, 0.90 mg/day (n = 4)): 0 (0.0) n (%)
DLT AE: Neutropenic sepsis ([7]; Cohort 1, 1.35 mg/day (n = 3)): 0 (0.0) n (%)
DLT AE: Neutropenic sepsis ([7]; Cohort 1, 2.00 mg/day (n = 4)): 1 (25.0)^† n (%)
DLT AE: Neutropenic sepsis ([7]; Cohort 1, All (n = 25)): 1 (4.0) n (%)
Maximum tolerated dose (MTD) ([7]; Cohort 2 (CLL/MCL)): < 0.9 mg/day and ~0.9 mg/day
DLT AE: Neutropenic sepsis ([7]; Cohort 2, 0.10 mg/day (n = 3)): 0 (0.0) n (%)
DLT AE: Neutropenic sepsis ([7]; Cohort 2, 0.90 mg/day (n = 5)): 0 (0.0) n (%)
DLT AE: Neutropenic sepsis ([7]; Cohort 2, All (n = 8)): 0 (0.0) n (%)
MTD in patients with hematologic malignancies (approximate range) ([7]; monotherapy, once daily, both cohorts): ~1 mg
